{"source": "paper PMC6269060", "about": "“4-(1H-Pyrazol-1-yl) Benzenesulfonamide Derivatives: Identifying New Active Antileishmanial Structures for Use against a Neglected Disease” (Molecules, 2012)", "key": {"[1]": {"system": "Leishmania infantum (L. chagasi syn.) promastigotes", "assay": "In vitro antileishmanial drug assay, L. infantum promastigotes", "assay_type": "cell-based, Leishmania infantum (syn. chagasi) MCAN/BR/97/P142 strain", "conditions": "for S.I (selectivity index: CC50 drug/IC50 drug), Leishmania infantum: CC50 on murine peritoneal cells / IC50 on L. infantum promastigotes; for IC50: Leishmania infantum, promastigotes, 24 h, 26 °C, mean ± S.D. of three determinations", "procedure": "(§1) Parasites in metacyclic phase (4 × 10^6 parasites/mL) were incubated with the derivatives (40–160 mg/mL) solubilized in dimethyl sulphoxide (DMSO, Sigma Chemical Co., St. Louis, MO, USA) at 26 °C for 24 h. The results were expressed as IC50/24 h, the concentration of a compound that caused a 50% reduction in survival/viability compared with non-treated culture. Pentamidine was used as reference drug and all tests were carried out in triplicate. Promastigotes of L. amazonensis (MHOM/BR/77/LTB0016 strain) and L. infantum (syn. chagasi) (MCAN/BR/97/P142 strain) were grown in Schneider’s insect medium (Sigma) at 26 °C in pH 7.2 supplemented with 10–20% (v/v) heat-inactivated fetal calf serum."}, "[2]": {"system": "Leishmania amazonensis promastigotes", "assay": "In vitro antileishmanial drug assay, L. amazonensis promastigotes", "assay_type": "cell-based, Leishmania amazonensis MHOM/BR/77/LTB0016 strain", "conditions": "for S.I (selectivity index: CC50 drug/IC50 drug), Leishmania amazonensis: CC50 on murine peritoneal cells / IC50 on L. amazonensis promastigotes; for IC50: Leishmania amazonensis, promastigotes, 24 h, 26 °C, mean ± S.D. of three determinations", "procedure": "as §1"}, "[3]": {"assay": "In vitro cytotoxicity (MTT)", "assay_type": "cell-based, BALB/c mice", "conditions": "BALB/c, mouse, murine peritoneal adherent cells", "procedure": "The BALB/c mice from Laboratory Animals Nucleus (UFF) were sacrificed to obtain peritoneal cells and for both infection and isolation of Leishmania. The protocol assays was approved by the Institutional Committee of the Center for Biological Evaluation and Care of Research Animals (CEUA-UFF).\nBALB/c mice peritoneal cavity cells (4 × 10^5cells/well) were incubated with the derivatives (10, 20, 40 and 80 µg/mL) in 96 wells plate for 24 h in […] RPMI 1640 medium, supplemented with 1 mmol·L^−1L-glutamine, […], penicillin G (10^5 IU·L^−1) and streptomycin sulfate (0.10 g·L^−1) at 37 °C in a humidified 5% CO2 atmosphere. After that, 3-[4,5-dimethylthiazol-2-yl]-2,5-diphenyltetrazolium bromide, MTT (Sigma) was added and the reaction was interrupted with DMSO after 2 h. The results were determined in 540 nm by using a MicroQuant spectrophotometer (Biotek-Instrument Inc., Winooski, VT, USA). All assays were repeated at least four times in quadruplicate. The cytotoxicity profile was expressed as CC50/24 h, the concentration of a compound that caused cytotoxicity compared to non-treated cultures. Index of selectivity (IS) was defined as the ratio of the CC50 value on the macrophage to the IC50 value on the L. amazonensis or L. infantum strains (promastigotes)."}}}
{"compound": "Cc1ccc(NS(=O)(=O)c2ccc(-n3nc(C)c(Br)c3Cl)cc2)cc1", "note": "[Compound 3c, 4-(4-Bromo-5-chloro-3-methyl-1H-pyrazol-1-yl)-N-(4methylphenyl)benzenesulfonamide]", "values": [{"measurement": "S.I (selectivity index: CC50 drug/IC50 drug), Leishmania infantum", "setting": "[1]", "value": 1.33}, {"measurement": "IC50", "setting": "[1]", "value": "123 ± 50", "unit": "µM"}, {"measurement": "S.I (selectivity index: CC50 drug/IC50 drug), Leishmania amazonensis", "setting": "[2]", "value": 0.51}, {"measurement": "IC50", "setting": "[2]", "value": "318 ± 590", "unit": "µM"}]}
{"compound": "Cc1nn(-c2ccc(S(=O)(=O)Nc3ccc(Br)cc3)cc2)c(Cl)c1Br", "note": "[Compound 3d, 4-(4-Bromo-5-chloro-3-methyl-1H-pyrazol-1-yl)-N-(4-bromophenyl)benzenesulfonamide]", "values": [{"measurement": "S.I (selectivity index: CC50 drug/IC50 drug), Leishmania infantum", "setting": "[1]", "value": 0.49}, {"measurement": "IC50", "setting": "[1]", "value": "99 ± 80", "unit": "µM"}, {"measurement": "S.I (selectivity index: CC50 drug/IC50 drug), Leishmania amazonensis", "setting": "[2]", "value": 0.65}, {"measurement": "IC50", "setting": "[2]", "value": "75 ± 10", "unit": "µM"}]}
{"compound": "Cc1cc(Cl)n(-c2ccc(NS(=O)(=O)c3ccccc3)cc2)n1", "note": "[Compound 3f, N-[4-(5-Chloro-3-methyl-1H-pyrazol-1-yl)phenyl]benzenesulfonamide]", "values": [{"measurement": "S.I (selectivity index: CC50 drug/IC50 drug), Leishmania infantum", "setting": "[1]", "value": 0.76}, {"measurement": "IC50", "setting": "[1]", "value": "138 ± 110", "unit": "µM"}, {"measurement": "S.I (selectivity index: CC50 drug/IC50 drug), Leishmania amazonensis", "setting": "[2]", "value": 0.68}, {"measurement": "IC50", "setting": "[2]", "value": "153 ± 220", "unit": "µM"}]}
{"compound": "Cc1nn(-c2ccc(S(=O)(=O)Nc3ccc(Cl)cc3)cc2)c(Cl)c1Br", "note": "[Compound 3e, 4-(4-Bromo-5-chloro-3-methyl-1H-pyrazol-1-yl)-N-(4-chlorophenyl)benzenesulfonamide]", "values": [{"measurement": "S.I (selectivity index: CC50 drug/IC50 drug), Leishmania infantum", "setting": "[1]", "value": 1.78}, {"measurement": "IC50", "setting": "[1]", "value": "65 ± 40", "unit": "µM"}, {"measurement": "S.I (selectivity index: CC50 drug/IC50 drug), Leishmania amazonensis", "setting": "[2]", "value": 1.61}, {"measurement": "IC50", "setting": "[2]", "value": "72 ± 50", "unit": "µM"}, {"measurement": "CC50 at 24 h", "setting": "[3]", "value": 116, "unit": "µM"}]}
{"compound": "Cc1nn(-c2ccc(S(N)(=O)=O)cc2)c(Cl)c1Br", "note": "[Compound 3a, 4-(4-Bromo-5-chloro-3-methyl-1H-pyrazol-1-yl)benzenesulfonamide]", "values": [{"measurement": "S.I (selectivity index: CC50 drug/IC50 drug), Leishmania infantum", "setting": "[1]", "value": 0.78}, {"measurement": "IC50", "setting": "[1]", "value": "228 ± 190", "unit": "µM"}, {"measurement": "S.I (selectivity index: CC50 drug/IC50 drug), Leishmania amazonensis", "setting": "[2]", "value": 0.78}, {"measurement": "IC50", "setting": "[2]", "value": "228 ± 330", "unit": "µM"}]}
{"compound": "N=C(N)c1ccc(OCCCCCOc2ccc(C(=N)N)cc2)cc1", "note": "[Pentamidine, reference compound]", "values": [{"measurement": "IC50", "setting": "[1]", "value": 62, "unit": "µM"}, {"measurement": "IC50", "setting": "[2]", "value": 21, "unit": "µM"}, {"measurement": "CC50 at 24 h", "setting": "[3]", "value": 54, "unit": "µM"}]}
{"compound": "Cc1ccc(S(=O)(=O)Nc2ccc(-n3nc(C)cc3Cl)cc2)cc1", "note": "[Compound 3g, N-[4-(5-Chloro-3-methyl-1H-pyrazol-1-yl)phenyl]-4-methylbenzenesulfonamide]", "values": [{"measurement": "S.I (selectivity index: CC50 drug/IC50 drug), Leishmania infantum", "setting": "[1]", "value": 1.21}, {"measurement": "IC50", "setting": "[1]", "value": "149 ± 120", "unit": "µM"}, {"measurement": "S.I (selectivity index: CC50 drug/IC50 drug), Leishmania amazonensis", "setting": "[2]", "value": 1.33}, {"measurement": "IC50", "setting": "[2]", "value": "136 ± 54", "unit": "µM"}]}
{"compound": "Cc1nn(-c2ccc(S(=O)(=O)Nc3ccccc3)cc2)c(Cl)c1Br", "note": "[Compound 3b, 4-(4-Bromo-5-chloro-3-methyl-1H-pyrazol-1-yl)-N-phenylbenzenesulfonamide]", "values": [{"measurement": "S.I (selectivity index: CC50 drug/IC50 drug), Leishmania infantum", "setting": "[1]", "value": 2.44}, {"measurement": "IC50", "setting": "[1]", "value": "59 ± 10", "unit": "µM"}, {"measurement": "S.I (selectivity index: CC50 drug/IC50 drug), Leishmania amazonensis", "setting": "[2]", "value": 2.05}, {"measurement": "IC50", "setting": "[2]", "value": "70 ± 20", "unit": "µM"}, {"measurement": "CC50 at 24 h", "setting": "[3]", "value": 144, "unit": "µM"}]}
